Columns and labels:
[1] = system: GLXMAW (Soybean, Williams); experiment: Preemergence herbicidal evaluation; assay type: in vivo, Glycine max, (L.) Merr. cv Williams; settings: rated 4-5 weeks after treatment
Outline: (§1)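 Steps: mix seeds into potting soil; plant atop ~1 inch soil; spray compound in aqueous acetone (~0.0156-0.500 kg/ha equivalent); maintain in greenhouse with watering; rate visually 0-9 versus control at 4-5 weeks.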

[2] = system: AMBEL (Ragweed, Common); experiment: Preemergence herbicidal evaluation; assay type: in vivo, Ambrosia artemisifolia; settings: rated 4-5 weeks after treatment
Outline: as §1

[3] = system: ABUTH (Velvetleaf); experiment: Preemergence herbicidal evaluation; assay type: in vivo, Abutilon theophrasti; settings: rated 4-5 weeks after treatment
Outline: as §1

[4] = system: ZEAMX (Corn, Field); experiment: Postemergence herbicidal evaluation; assay type: in vivo, Zea mays; settings: postemergence
Outline: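 Herbicidal effect was judged by eye on a 0–9 scale covering stand, vigor, deformity, size and chlorosis, compared with controls, four to five weeks after seedlings about two weeks old were sprayed (40 psi, ~0.0156–0.500 kg/ha).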

[5] = rate 0.0625 kg/ha, rating scale 0-9
[6] = rate 0.1250 kg/ha, rating scale 0-9
[7] = rate 0.2500 kg/ha, rating scale 0-9
[8] = rate 0.0313 kg/ha, rating scale 0-9

C#CC(C)N1C(=O)CSC1=Nc1cc(-n2c(=O)cc(C(F)(F)F)n(C)c2=O)c(F)cc1Cl (stereo not shown) [Compound 165, 3-{4-Chloro-2-fluoro-5-{[3-(1-methyl-2-propynyl)-4-oxo-2-thiazolidinylidene]amino}phenyl}-1-methyl-6-(trifluoromethyl)-2,4(1H,3H)-pyrimidinedione]
Preemergence herbicidal rating GLXMAW ([1]; 0.0156 kg/ha): 0.0
Preemergence herbicidal rating GLXMAW ([1]; 0.0313 kg/ha): 0.0
Preemergence herbicidal rating GLXMAW ([1]; 0.0625 kg/ha): 4.0
Preemergence herbicidal rating GLXMAW ([1]; 0.1250 kg/ha): 4.0
Preemergence herbicidal rating GLXMAW ([1]; 0.2500 kg/ha): 5.0
Preemergence herbicidal rating GLXMAW ([1]; 0.5000 kg/ha): 6.0
Preemergence herbicidal rating AMBEL ([2]; 0.0156 kg/ha): 0.0
Preemergence herbicidal rating AMBEL ([2]; 0.0313 kg/ha): 1.0
Preemergence herbicidal rating AMBEL ([2]; 0.0625 kg/ha): 0.0
Preemergence herbicidal rating AMBEL ([2]; 0.1250 kg/ha): 7.0
Preemergence herbicidal rating AMBEL ([2]; 0.2500 kg/ha): 7.0
Preemergence herbicidal rating AMBEL ([2]; 0.5000 kg/ha): 9.0
Preemergence herbicidal rating ABUTH ([3]; 0.0156 kg/ha): 0.0
Preemergence herbicidal rating ABUTH ([3]; 0.0313 kg/ha): 0.0
Preemergence herbicidal rating ABUTH ([3]; 0.0625 kg/ha): 0.0
Preemergence herbicidal rating ABUTH ([3]; 0.1250 kg/ha): 9.0
Preemergence herbicidal rating ABUTH ([3]; 0.2500 kg/ha): 9.0
Preemergence herbicidal rating ABUTH ([3]; 0.5000 kg/ha): 9.0
herbicidal rating ZEAMX ([4]; rate 0.0156 kg/ha): 4
herbicidal rating ZEAMX ([4]; rate 0.0313 kg/ha): 5.0
herbicidal rating ZEAMX ([4]; rate 0.0625 kg/ha): 5.0
herbicidal rating ZEAMX ([4]; rate 0.1250 kg/ha): 5.5

COc1cccc(CN2C(=O)CSC2=Nc2cc(-n3c(=O)cc(C(F)(F)F)n(C)c3=O)c(F)cc2Cl)c1 [Compound 137, 3-{4-Chloro-2-fluoro-5-{[3-(m-methoxybenzyl)-4-oxo-2-thiazolidinylidene]amino}phenyl}-1-methyl-6-(trifluoromethyl)-2,4(1H,3H)-pyrimidinedione]
Preemergence herbicidal rating GLXMAW [1, 5]: 0.0
Preemergence herbicidal rating GLXMAW [1, 6]: 0.0
Preemergence herbicidal rating GLXMAW [1, 7]: 1.0
Preemergence herbicidal rating AMBEL [2, 5]: 0.0
Preemergence herbicidal rating AMBEL [2, 6]: 0.0
Preemergence herbicidal rating AMBEL [2, 7]: 7.0
Preemergence herbicidal rating ABUTH [3, 5]: 0.0
Preemergence herbicidal rating ABUTH [3, 6]: 0.0
Preemergence herbicidal rating ABUTH [3, 7]: 9.0
herbicidal rating ZEAMX ([4]; rate 0.0156 kg/ha): 4.0
herbicidal rating ZEAMX ([4]; rate 0.0313 kg/ha): 4.0
herbicidal rating ZEAMX ([4]; rate 0.0625 kg/ha): 4.0

Cn1c(C(F)(F)F)cc(=O)n(-c2cc(N=C3SCC(=O)N3Cc3ccccc3Cl)c(Cl)cc2F)c1=O [Compound 143]
Preemergence herbicidal rating GLXMAW [1, 8]: 0.0
Preemergence herbicidal rating GLXMAW [1, 5]: 0.0
Preemergence herbicidal rating GLXMAW [1, 6]: 0.0
Preemergence herbicidal rating GLXMAW [1, 7]: 1.0
Preemergence herbicidal rating AMBEL [2, 8]: 0.0
Preemergence herbicidal rating AMBEL [2, 5]: 0.0
Preemergence herbicidal rating AMBEL [2, 6]: 2.0
Preemergence herbicidal rating AMBEL [2, 7]: 3.0
Preemergence herbicidal rating ABUTH [3, 8]: 1.0
Preemergence herbicidal rating ABUTH [3, 5]: 1.0
Preemergence herbicidal rating ABUTH [3, 6]: 6.0
Preemergence herbicidal rating ABUTH [3, 7]: 9.0
herbicidal rating ZEAMX ([4]; rate 0.0156 kg/ha): 4.0
herbicidal rating ZEAMX ([4]; rate 0.0313 kg/ha): 4.0
herbicidal rating ZEAMX ([4]; rate 0.0625 kg/ha): 4.0

Cn1c(C(F)(F)F)cc(=O)n(-c2cc(N=C3SCC(=O)N3CC(=O)OCC3CC3)c(Cl)cc2F)c1=O [Compound 124, Cyclopropylmethyl 2-{{2-chloro-5-[3,6-dihydro-3-methyl-2,6-dioxo-4-(trifluoromethyl)-1(2H)-pyrimidinyl]-4-fluorophenyl}imino}-4-oxo-3-thiazolidineacetate]
Preemergence herbicidal rating GLXMAW ([1]; rate 0.0156 kg/ha): 0.0
Preemergence herbicidal rating GLXMAW ([1]; rate 0.0313 kg/ha): 0.0
Preemergence herbicidal rating GLXMAW ([1]; rate 0.0625 kg/ha): 0.0
Preemergence herbicidal rating GLXMAW ([1]; rate 0.1250 kg/ha): 0.0
Preemergence herbicidal rating GLXMAW ([1]; rate 0.2500 kg/ha): 0.0
Preemergence herbicidal rating GLXMAW ([1]; rate 0.5000 kg/ha): 3.0
Preemergence herbicidal rating AMBEL ([2]; rate 0.0156 kg/ha): 0.0
Preemergence herbicidal rating AMBEL ([2]; rate 0.0313 kg/ha): 0.0
Preemergence herbicidal rating AMBEL ([2]; rate 0.0625 kg/ha): 4.0
Preemergence herbicidal rating AMBEL ([2]; rate 0.1250 kg/ha): 9.0
Preemergence herbicidal rating AMBEL ([2]; rate 0.2500 kg/ha): 9.0
Preemergence herbicidal rating AMBEL ([2]; rate 0.5000 kg/ha): 9.0
Preemergence herbicidal rating ABUTH ([3]; rate 0.0156 kg/ha): 0.0
Preemergence herbicidal rating ABUTH ([3]; rate 0.0313 kg/ha): 0.0
Preemergence herbicidal rating ABUTH ([3]; rate 0.0625 kg/ha): 0.0
Preemergence herbicidal rating ABUTH ([3]; rate 0.1250 kg/ha): 2.0
Preemergence herbicidal rating ABUTH ([3]; rate 0.2500 kg/ha): 4.0
Preemergence herbicidal rating ABUTH ([3]; rate 0.5000 kg/ha): 7.0
herbicidal rating ZEAMX ([4]; rate 0.0156 kg/ha): 6.3
herbicidal rating ZEAMX ([4]; rate 0.0313 kg/ha): 7.3
herbicidal rating ZEAMX ([4]; rate 0.0625 kg/ha): 8.0
